Results from patent US20230218765A1, “SMALL MOLECULE DEGRADERS OF SHP2 PROTEIN” (THE REGENTS OF THE UNIVERSITY OF MICHIGAN, priority 2020, published 2023).
Where a SMILES comes first, the peptide text is derived from it. The star is where a group is joined. Cbz = O=C(OCc1ccccc1)*

Experiments:
SHP2 [1] = molecular target: T1, SHP2 (Homo sapiens, UniProt Q06124); assay: SHP2 degradation by Western blot in KYSE520 cells; conditions: for block of SHP2-D26-induced degradation of SHP2 protein: KYSE520, pre-treatment 1 h (VHL 10 µM, compound 4 10 µM, MLN4924 0.5 µM, MG132 3 µm), then SHP2-D26 0.1 µM
T1 sequence (Q06124 1-593): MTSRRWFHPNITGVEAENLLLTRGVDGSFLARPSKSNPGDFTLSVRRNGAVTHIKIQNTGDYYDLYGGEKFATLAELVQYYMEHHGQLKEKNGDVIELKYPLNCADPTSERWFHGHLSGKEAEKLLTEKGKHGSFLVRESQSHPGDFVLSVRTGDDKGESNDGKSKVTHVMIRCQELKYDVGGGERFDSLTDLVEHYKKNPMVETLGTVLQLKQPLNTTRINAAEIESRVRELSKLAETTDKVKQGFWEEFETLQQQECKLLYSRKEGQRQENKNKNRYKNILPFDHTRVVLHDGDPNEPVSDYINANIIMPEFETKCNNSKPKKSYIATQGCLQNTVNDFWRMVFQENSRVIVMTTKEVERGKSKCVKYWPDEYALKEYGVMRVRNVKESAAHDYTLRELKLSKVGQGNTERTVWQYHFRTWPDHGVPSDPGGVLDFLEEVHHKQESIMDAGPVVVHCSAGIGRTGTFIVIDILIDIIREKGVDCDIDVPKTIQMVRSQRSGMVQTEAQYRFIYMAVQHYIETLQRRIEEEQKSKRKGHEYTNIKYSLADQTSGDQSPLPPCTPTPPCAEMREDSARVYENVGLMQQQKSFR
Protocol: (§1) Western blotting and quantification were performed with regular western blot method and band quantification was performed using ImageJ. Treated cells were lysed by RIPA buffer supplemented with protease and phosphatase inhibitors. […] The net protein bands and loading controls are calculated by deducting the background from the inverted band value. The final relative quantification values are the ratio of the net band to net loading control.
(§2) The treated cells were harvested and the level of SHP2 protein was examined by blot analysis. GAPDH was used as a loading control.
(§3) SHP2 protein was examined by Western blotting and the protein level was quantified by densitometry and normalized to the corresponding density of the GAPDH protein. […] Cells were treated with 100 nM of SHP2-D26 for different times. SHP2 protein was examined by Western blotting and the GAPDH protein was used as the loading control.

SHP2 [2] = molecular target: T1, SHP2; assay: SHP2 degradation by Western blot in MV4;11 cells; conditions: 0.1 µM
Protocol: as §1, §2, §3

SMILES	% of SHP2 protein degradation in KYSE520 cell line (SHP2 [1]; 0.1 µM)	% of SHP2 protein degradation in KYSE520 cell line (SHP2 [1]; 1 µM)	% of SHP2 protein degradation in MV4;11 cell line (SHP2 [2])	block of SHP2-D26-induced degradation of SHP2 protein (SHP2 [1])
Cc1ncsc1-c1ccc([C@@H](C)NC(=O)[C@H]2C[C@H](O)CN2C(=O)[C@H](NC(=O)CCCCCCCCCCCNC(=O)CC(=O)Nc2cccc(Sc3ncc(N4CCC(C)(N)CC4)nc3N)c2Cl)C(C)(C)C)cc1 [Compound 16]	>95%	93%		
Cc1ncsc1-c1ccc([C@@H](C)NC(=O)[C@H]2C[C@H](O)CN2C(=O)[C@H](NC(=O)CCCCCCCCCCCN2CCN(CC(=O)Nc3cccc(Sc4ncc(N5CCC(C)(N)CC5)nc4N)c3Cl)CC2)C(C)(C)C)cc1 [Compound 24]	80%	>95%	6%	
Cc1ncsc1-c1ccc([C@@H](C)NC(=O)[C@H]2C[C@H](O)CN2C(=O)[C@H](NC(=O)CCCNC(=O)CC(=O)Nc2cccc(Sc3ncc(N4CCC(C)(N)CC4)nc3N)c2Cl)C(C)(C)C)cc1 [Compound 8]	9%	7%		
Cc1ncsc1-c1ccc([C@@H](C)NC(=O)[C@H]2C[C@H](O)CN2C(=O)[C@H](NC(=O)COCCOCCOCCNC(=O)CCC(=O)Nc2cccc(Sc3ncc(N4CCC(C)(N)CC4)nc3N)c2Cl)C(C)(C)C)cc1 [Compound 20]	80%	>95%	>95%	
Cc1ncsc1-c1ccc([C@@H](C)NC(=O)[C@H]2C[C@H](O)CN2C(=O)[C@H](NC(=O)CCCCCCCOc2ccc(NC(=O)CCC(=O)Nc3cccc(Sc4ncc(N5CCC(C)(N)CC5)nc4N)c3Cl)cc2)C(C)(C)C)cc1 [Compound 28]	>95%	>95%	90%	
Cc1ncsc1-c1ccc([C@@H](C)NC(=O)[C@H]2C[C@H](O)CN2C(=O)[C@H](NC(=O)CCCCCCCCCCNC(=O)CCC(=O)Nc2cccc(Sc3ncc(N4CCC(C)(N)CC4)nc3N)c2Cl)C(C)(C)C)cc1 [Compound 17]	>95%	>95%		
NS(=O)(=O)OC[C@@H]1C[C@@H](n2ccc3c(N[C@H]4CCc5ccccc54)ncnc32)C[C@@H]1O [MLN4924, reference compound]				effectively block degradation of SHP2 protein
Cc1ncsc1-c1ccc([C@@H](C)NC(=O)[C@H]2C[C@H](O)CN2C(=O)[C@H](NC(=O)CCOCCOCCOCCNC(=O)CCC(=O)Nc2cccc(Sc3ncc(N4CCC(C)(N)CC4)nc3N)c2Cl)C(C)(C)C)cc1 [Compound 21]	32%	87%	85%	
Cc1ncsc1-c1ccc([C@H](C)NC(=O)[C@@H]2C[C@@H](O)CN2C(=O)[C@@H](NC(=O)CCOCCOCCOCCNC(=O)CC(=O)Nc2cccc(Sc3ncc(N4CCC5(CCC[C@@H]5N)CC4)nc3N)c2Cl)C(C)(C)C)cc1 [Compound 42]	>95%	>95%	94%	
CC(C)C[C@@H](C=O)NC(=O)[C@H](CC(C)C)NC(=O)[C@H](CC(C)C)NC(=O)OCc1ccccc1 [MG132, reference compound] (Cbz-Leu-Leu-Leu-aldehyde)				effectively block degradation of SHP2 protein
Cc1ncsc1-c1ccc([C@@H](C)NC(=O)[C@H]2C[C@H](O)CN2C(=O)[C@H](NC(=O)CCCCCCCCCCCNC(=O)CC(=O)Nc2cccc(Sc3ncc(N4CCC(C)(CN)CC4)nc3N)c2Cl)C(C)(C)C)cc1 [Compound 40]	>95%	>95%	>95%	
Cc1ncsc1-c1ccc([C@@H](C)NC(=O)[C@H]2C[C@H](O)CN2C(=O)[C@H](NC(=O)CCCCCCNC(=O)CC(=O)Nc2cccc(Sc3ncc(N4CCC(C)(N)CC4)nc3N)c2Cl)C(C)(C)C)cc1 [Compound 11]	0%	0%		
Cc1ncsc1-c1ccc([C@@H](C)NC(=O)[C@H]2C[C@H](O)CN2C(=O)[C@H](NC(=O)CCCCCCCCNC(=O)CC(=O)Nc2cccc(Sc3ncc(N4CCC(C)(N)CC4)nc3N)c2Cl)C(C)(C)C)cc1 [Compound 13]	81%	80%		
Cc1ncsc1-c1ccc([C@@H](C)NC(=O)[C@H]2C[C@H](O)CN2C(=O)[C@H](NC(=O)CCCCCCCCCCCCCCC(=O)Nc2cccc(Sc3ncc(N4CCC(C)(N)CC4)nc3N)c2Cl)C(C)(C)C)cc1 [Compound 25]	62%	90%	8%	
Cc1ncsc1-c1ccc([C@@H](C)NC(=O)[C@H]2C[C@H](O)CN2C(=O)[C@H](NC(=O)CCCCCCCCCN2CCN(C(=O)CCC(=O)Nc3cccc(Sc4ncc(N5CCC(C)(N)CC5)nc4N)c3Cl)CC2)C(C)(C)C)cc1 [Compound 27]	>95%	>95%	>95%	
Cc1ncsc1-c1ccc([C@@H](C)NC(=O)[C@H]2C[C@H](O)CN2C(=O)[C@H](NC(=O)COCCOCCOCCOCCNC(=O)CCC(=O)Nc2cccc(Sc3ncc(N4CCC(C)(N)CC4)nc3N)c2Cl)C(C)(C)C)cc1 [Compound 22]	53%	>95%	95%	
Cc1ncsc1-c1ccc([C@@H](C)NC(=O)[C@H]2C[C@H](O)CN2C(=O)[C@H](NC(=O)CCCCCCCCCCCNC(=O)CCC(=O)Nc2cccc(Sc3ncc(N4CCC(C)(N)CC4)nc3N)c2Cl)C(C)(C)C)cc1 [Compound 18]	>95%	>95%		
Cc1ncsc1-c1ccc([C@@H](C)NC(=O)[C@H]2C[C@H](O)CN2C(=O)[C@H](NC(=O)CCCCCCCCCCCNC(=O)CCCC(=O)Nc2cccc(Sc3ncc(N4CCC(C)(N)CC4)nc3N)c2Cl)C(C)(C)C)cc1 [Compound 19]	>95%	>95%		
Cc1ncsc1-c1ccc([C@@H](C)NC(=O)[C@H]2C[C@H](O)CN2C(=O)[C@H](NC(=O)CCCCCNC(=O)CC(=O)Nc2cccc(Sc3ncc(N4CCC(C)(N)CC4)nc3N)c2Cl)C(C)(C)C)cc1 [Compound 10]	0%	3%		
Cc1ncsc1-c1ccc([C@@H](C)NC(=O)[C@H]2C[C@H](O)CN2C(=O)[C@H](NC(=O)CCCCCCCNC(=O)CC(=O)Nc2cccc(Sc3ncc(N4CCC(C)(N)CC4)nc3N)c2Cl)C(C)(C)C)cc1 [Compound 12]	20%	14%		
Cc1ncsc1-c1ccc([C@@H](C)NC(=O)[C@H]2C[C@H](O)CN2C(=O)[C@H](NC(=O)CCCCCCCCCCNC(=O)CC(=O)Nc2cccc(Sc3ncc(N4CCC(C)(N)CC4)nc3N)c2Cl)C(C)(C)C)cc1 [Compound 15]	>95%	>95%		
Cc1ncsc1-c1ccc([C@@H](C)NC(=O)[C@H]2C[C@H](O)CN2C(=O)[C@H](NC(=O)CCCCCCCCCNC(=O)CC(=O)Nc2cccc(Sc3ncc(N4CCC(C)(N)CC4)nc3N)c2Cl)C(C)(C)C)cc1 [Compound 14]	>95%	92%		
Cc1ncsc1-c1ccc([C@@H](C)NC(=O)[C@H]2C[C@H](O)CN2C(=O)[C@H](NC(=O)CCCCNC(=O)CC(=O)Nc2cccc(Sc3ncc(N4CCC(C)(N)CC4)nc3N)c2Cl)C(C)(C)C)cc1 [Compound 9]	13%	6%		
